Experimental data published in PMC7558026, “Exploring and applying the substrate promiscuity of a C-glycosyltransferase in the chemo-enzymatic synthesis of bioactive C-glycosides” (Nature Communications, 2020).
Residue numbers refer to the chain shown, from its start. Several values for one entry are separate records, joined by “and”; a condition that tells them apart may be missing. Identical values can stand only once.

Columns and labels:
AbCGT V183E = target: T1, AbCGT V183E (Aloe vera, UniProt A0A7G9P699, V183E); experiment: Glycosyltransferase activity of AbCGT variant V183E; type: biochemical, Aloe barbadensis
T1 sequence (A0A7G9P699 1-470 V183E): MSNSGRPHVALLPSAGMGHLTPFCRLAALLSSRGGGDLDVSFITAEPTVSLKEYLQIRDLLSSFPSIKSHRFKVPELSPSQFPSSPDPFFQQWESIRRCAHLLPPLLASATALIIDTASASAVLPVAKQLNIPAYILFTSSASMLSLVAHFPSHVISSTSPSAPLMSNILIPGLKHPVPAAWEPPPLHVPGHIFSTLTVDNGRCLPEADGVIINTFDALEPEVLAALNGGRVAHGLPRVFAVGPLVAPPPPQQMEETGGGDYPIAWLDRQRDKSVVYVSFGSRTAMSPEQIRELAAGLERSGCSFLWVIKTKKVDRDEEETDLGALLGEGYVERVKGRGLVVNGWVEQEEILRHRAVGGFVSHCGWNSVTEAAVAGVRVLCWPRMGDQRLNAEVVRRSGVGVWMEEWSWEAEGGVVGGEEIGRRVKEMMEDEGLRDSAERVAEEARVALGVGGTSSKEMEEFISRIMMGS
Protocol: (§1) The reaction mixture contained 0.5 mM sugar donors (1.0 mM for di-glycosylation), 0.25 mM aglycons, 50 mM Tris-HCl (pH 7.4), and 50‒100 μg of purified AbCGT in a final volume of 100 μL. Due to the instability of some acceptors in the buffer of pH 11.0, the reactions were performed under the physiological conditions (pH 7.4, 30 °C) to compare the catalytic activities of AbGT27 with different substrates under the same conditions. The reactions were performed at 30 °C for up to 12 h and terminated by the addition of 200 μL of ice-cold methanol. Subsequently, samples were centrifuged at 15,000 × g for 30 min to collect the supernatant, and aliquots were analyzed by HPLC-UV/ESIMS. HPLC analysis was performed on a Shiseido CAPCELL PAK C18 MG III column (250 mm × 4.6 mm I.D., 5 μm, Shiseido Co., Ltd., Japan) at a flow rate of 1 mL min^‒1. The mobile phase was a gradient elution of solvents A (0.1% formic acid aqueous solution) and B (methanol). The gradient programs were used for the analysis of the reactions (Supplementary Table 6). The conversion rates of the enzyme reactions were calculated from peak areas of glycosylated products and substrates as analyzed by HPLC. To facilitate inferential statistical analysis, three parallel assays were routinely performed; the means ± SD from triplicate analyses are reported here.
(§2) Site-saturation mutagenesis of AbCGT at residue 183 was performed by PCR using pET28a-AbCGT as a template and the corresponding degenerate primers, which are listed in Supplementary Table 5. PCR products were purified and transformed into Trans1-T1 (DE3) E. coli. The sequences of pET28a-AbCGT mutants were confirmed by sequencing, and transformed into Transetta (DE3) E. coli for heterologous expression following protein purification.

AbCGT V183D = target: T2, AbCGT V183D (Aloe vera, UniProt A0A7G9P699, V183D); experiment: Glycosyltransferase activity of AbCGT variant V183D; type: biochemical, Aloe barbadensis
T2 sequence (A0A7G9P699 1-470 V183D): T1 sequence (A0A7G9P699 1-470 V183E) with E183D
Protocol: as §1, §2

AbCGT = AbCGT (Aloe vera, UniProt A0A7G9P699); experiment: Glycosyltransferase activity assay, purified AbCGT (wild type) with aglycon acceptors and UDP-Glc; type: biochemical, Aloe barbadensis; conditions: for conversion rates, O,N,S-glycosylation / conversion rates, di-C-glycosylation / conversion rates, mono-C-glycosylation: aglycon acceptor with UDP-Glc, pH 7.4, 30 °C, up to 12 h
AbCGT, sequence (A0A7G9P699 entry or part of it): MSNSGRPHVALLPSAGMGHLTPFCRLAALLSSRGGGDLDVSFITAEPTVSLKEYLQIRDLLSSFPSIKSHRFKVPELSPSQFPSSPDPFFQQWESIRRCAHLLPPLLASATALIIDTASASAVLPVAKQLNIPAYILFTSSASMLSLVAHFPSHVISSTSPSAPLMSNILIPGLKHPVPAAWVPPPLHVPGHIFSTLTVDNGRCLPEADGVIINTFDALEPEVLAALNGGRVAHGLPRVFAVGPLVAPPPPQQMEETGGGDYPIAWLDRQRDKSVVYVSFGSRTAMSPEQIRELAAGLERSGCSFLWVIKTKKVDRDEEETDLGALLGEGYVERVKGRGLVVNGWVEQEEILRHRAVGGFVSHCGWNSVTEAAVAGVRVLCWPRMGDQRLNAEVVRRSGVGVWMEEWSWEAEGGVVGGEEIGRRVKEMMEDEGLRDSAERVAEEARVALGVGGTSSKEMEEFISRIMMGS
Protocol: as §1, with “Due” for “The reaction mixture contained 0.5 mM sugar donors (1.0 mM for di-glycosylation), 0.25 mM aglycons, 50 mM Tris-HCl (pH 7.4), and 50‒100 μg of purified AbCGT in a final volume of 100 μL. Due”, “HPLC analysis was performed on a Shiseido CAPCELL PAK C18 MG III column (250 mm × 4.6 mm I.D., 5 μm, Shiseido Co., Ltd., Japan) at a flow rate of 1 mL min^‒1. The mobile phase was a gradient elution of solvents A (0.1% formic acid aqueous solution) and B (methanol).” left out

SGLT2 = target: T3, SGLT2 (Homo sapiens, UniProt P31639); experiment: 1-NBDG uptake in HEK293 cells stably expressing SGLT2; type: cell-based; conditions: HEK293, compound at 10 μM; triplicate; read-out: SGLT2 inhibitory rates
T3 construct: Human full-length SGLT2 cDNA (NM_003041.3) was synthesized; expressed in transfected cells; host or cells: HEK293, retroviral transduction with pMSCVpuro-SGLT2, puromycin selected
T3 sequence (P31639 1-672): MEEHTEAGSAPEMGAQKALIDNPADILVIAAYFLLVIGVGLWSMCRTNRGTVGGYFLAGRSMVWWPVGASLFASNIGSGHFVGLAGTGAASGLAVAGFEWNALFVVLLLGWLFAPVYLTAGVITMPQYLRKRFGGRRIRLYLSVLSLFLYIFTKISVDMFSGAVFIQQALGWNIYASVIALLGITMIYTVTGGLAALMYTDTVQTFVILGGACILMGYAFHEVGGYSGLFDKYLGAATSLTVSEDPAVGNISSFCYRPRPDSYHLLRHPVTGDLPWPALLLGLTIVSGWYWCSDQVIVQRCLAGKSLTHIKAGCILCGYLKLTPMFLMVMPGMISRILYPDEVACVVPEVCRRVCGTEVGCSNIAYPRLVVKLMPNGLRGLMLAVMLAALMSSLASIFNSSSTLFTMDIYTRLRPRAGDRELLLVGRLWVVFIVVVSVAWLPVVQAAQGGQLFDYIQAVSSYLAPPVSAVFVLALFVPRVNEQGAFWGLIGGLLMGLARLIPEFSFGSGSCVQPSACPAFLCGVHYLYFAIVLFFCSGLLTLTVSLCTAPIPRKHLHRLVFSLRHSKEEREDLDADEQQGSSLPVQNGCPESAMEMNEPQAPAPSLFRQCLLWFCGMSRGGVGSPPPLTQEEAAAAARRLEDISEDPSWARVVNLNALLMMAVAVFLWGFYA

E. coli-AbCGT = experiment: Glycosylation by whole-cell biocatalyst E. coli-AbCGT; type: cell-based; conditions: fig. 2c, 30 °C, M9 medium, 12 h, 0.25 mM acceptor; Reaction-1 to -3
Protocol: The induced cells of E. coli-AbCGT were harvested by centrifugation at 3000 × g for 5 min at 4 °C and washed with ddH2O. Pellets were resuspended by M9 minimal medium containing 2% glucose to appropriate cell density (OD600 = 3.0). Prepared whole-cell biocatalyst of E. coli-AbCGT (500 μL) was then added to 2-mL tubes containing various acceptors at a concentration of 0.25 mM. The mixture was incubated at 30 °C for 12 h with shaking (200 rpm). The reactions were analyzed using GT activity assays as described above. For quantification, three parallel assays were routinely carried out.

## COc1cc(O)c(C(C)=O)c(OC)c1 [Compound 14]
AbCGT V183E; reaction-1
  V183E/yield of C-glycoside(%): 8%
  V183E/yield of O-glycoside(%): 0%
AbCGT V183E; reaction-2
  V183E/yield of C-glycoside(%): 7.9%
  V183E/yield of O-glycoside(%): 0%
AbCGT V183E; reaction-3
  V183E/yield of C-glycoside(%): 7.5%
  V183E/yield of O-glycoside(%): 0%
AbCGT V183D; reaction-1
  V183D/yield of C-glycoside(%): 0%
  V183D/yield of O-glycoside(%): 0%
AbCGT V183D; reaction-2
  V183D/yield of C-glycoside(%): 0%
  V183D/yield of O-glycoside(%): 0%
AbCGT V183D; reaction-3
  V183D/yield of C-glycoside(%): 0%
  V183D/yield of O-glycoside(%): 0%
AbCGT; Reaction-1 to -3
  conversion rates, O,N,S-glycosylation: 2% and 1.9%
  conversion rates, di-C-glycosylation: 0%
  conversion rates, mono-C-glycosylation: 0%
AbCGT; reaction-1
  WT/yield of C-glycoside(%): 0%
  WT/yield of O-glycoside(%): 1.5%
AbCGT; reaction-2
  WT/yield of C-glycoside(%): 0%
  WT/yield of O-glycoside(%): 1.6%
AbCGT; reaction-3
  WT/yield of C-glycoside(%): 0%
  WT/yield of O-glycoside(%): 2.8%

## O=C(CCc1ccc(O)cc1)c1c(O)cc(O)c([C@@H]2O[C@H](CO)[C@@H](O)[C@H](O)[C@H]2O)c1O [Compound 17a]
SGLT2
  inhibition at 10 µM: 52.2%

## O=C(CCc1ccc(O)cc1)c1c(O)c([C@@H]2O[C@H](CO)[C@@H](O)[C@H](O)[C@H]2O)c(O)c([C@@H]2O[C@H](CO)[C@@H](O)[C@H](O)[C@H]2O)c1O [Compound 17aa]
SGLT2
  inhibition at 10 µM: 2.8%

## O=C(CCc1ccc(O)cc1)c1c(O)cc(O)c(C2OC(CO)C(O)C(O)C2O)c1O [Compound 17b, phloretin-3′-C-β-D-galactoside]
SGLT2
  inhibition at 10 µM: -3.1%

## O=C(CCc1ccc(O)cc1)c1c(O)cc(O)c(C2OCC(O)C(O)C2O)c1O [Compound 17c, phloretin-3′-C-β-D-xyloside]
SGLT2
  inhibition at 10 µM: 1.7%

## COc1ccc(Cc2c(O)cc(O)cc2O)cc1OC [Compound 20]
SGLT2
  inhibition at 10 µM: 0.2%
AbCGT; Reaction-1 to -3
  conversion rates, O,N,S-glycosylation: 0%
  conversion rates, di-C-glycosylation: 0%
  conversion rates, mono-C-glycosylation: 100%

## COc1ccc(Cc2c(O)cc(O)c([C@@H]3O[C@H](CO)[C@@H](O)[C@H](O)[C@H]3O)c2O)cc1OC [Compound 20a]
SGLT2
  inhibition at 10 µM: 13.6%

## COc1ccc(CCc2ccc(O)cc2O)cc1 [Compound 21]
SGLT2
  inhibition at 10 µM: 1.8%
AbCGT; Reaction-1 to -3
  conversion rates, O,N,S-glycosylation: 0%
  conversion rates, di-C-glycosylation: 0%
  conversion rates, mono-C-glycosylation: 100%

## COc1ccc(CCc2ccc(O)c([C@@H]3O[C@H](CO)[C@@H](O)[C@H](O)[C@H]3O)c2O)cc1 [Compound 21a]
SGLT2
  inhibition at 10 µM: 22.7%

## Oc1cc(O)cc(OCCCCCCc2ccccc2)c1 [Compound 22]
AbCGT V183E; reaction-1
  V183E/yield of C-glycoside(%): 0%
  V183E/yield of O-glycoside(%): 0%
AbCGT V183E; reaction-2
  V183E/yield of C-glycoside(%): 0%
  V183E/yield of O-glycoside(%): 0%
AbCGT V183E; reaction-3
  V183E/yield of C-glycoside(%): 0%
  V183E/yield of O-glycoside(%): 0%
AbCGT V183D; reaction-1
  V183D/yield of C-glycoside(%): 0%
  V183D/yield of O-glycoside(%): 0%
AbCGT V183D; reaction-2
  V183D/yield of C-glycoside(%): 0%
  V183D/yield of O-glycoside(%): 0%
AbCGT V183D; reaction-3
  V183D/yield of C-glycoside(%): 0%
  V183D/yield of O-glycoside(%): 0%
AbCGT; Reaction-1 to -3
  conversion rates, O,N,S-glycosylation: 33% and 31.4% and 25.1%
  conversion rates, di-C-glycosylation: 0%
  conversion rates, mono-C-glycosylation: 8.5% and 9.9% and 11.3%
AbCGT; reaction-1
  WT/yield of C-glycoside(%): 9.6%
  WT/yield of O-glycoside(%): 28.2%
AbCGT; reaction-2
  WT/yield of C-glycoside(%): 11%
  WT/yield of O-glycoside(%): 26.9%
AbCGT; reaction-3
  WT/yield of C-glycoside(%): 9.5%
  WT/yield of O-glycoside(%): 34.6%

## CCc1ccc(O)cc1O [Compound 27]
E. coli-AbCGT
  conversion rates, Whole cells: 0%
AbCGT; fig. 2b, purified AbCGT, redesigned substrates, Reaction-1 to -3
  conversion rates, Purified Enzyme: 5.7% and 8.5% and 6.8%
